According to patent US7897627B2, “Heteroaryl derivatives as orexin receptor antagonists” (Hoffmann-La Roche Inc., priority 2007, dated 2011):

Biological target: T1, human orexin-2 (hOX2) receptor (Homo sapiens, UniProt O43614)
T1 construct: expressed in transfected cells
T1 sequence (O43614 1-444): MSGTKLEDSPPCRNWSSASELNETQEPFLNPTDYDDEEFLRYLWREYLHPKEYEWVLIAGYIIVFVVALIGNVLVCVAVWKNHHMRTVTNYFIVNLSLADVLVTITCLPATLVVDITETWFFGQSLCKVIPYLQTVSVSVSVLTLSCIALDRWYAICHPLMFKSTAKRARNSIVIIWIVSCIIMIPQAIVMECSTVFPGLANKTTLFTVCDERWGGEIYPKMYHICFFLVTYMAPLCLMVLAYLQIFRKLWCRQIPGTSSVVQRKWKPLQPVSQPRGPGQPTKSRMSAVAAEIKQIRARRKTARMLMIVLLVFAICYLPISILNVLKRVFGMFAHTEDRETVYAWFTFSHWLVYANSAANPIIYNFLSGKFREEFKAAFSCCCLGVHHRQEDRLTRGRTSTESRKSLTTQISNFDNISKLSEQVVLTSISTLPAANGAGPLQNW
Experiment: Intracellular Ca2+ mobilization assay (FLIPR), CHO(dHFr-) cells expressing hOX2, orexin-A as agonist
Assay type: cell-based
Conditions: antagonist Kb=IC50/(1+[A]/EC50); orexin-A at EC80; CHO(dHFr-)-OX2R cells; antagonist applied 25 min before agonist
Procedure: Intracellular Ca^2+ Mobilization Assay
The Chinese Hamster Ovary (dHFr-) mutant cell line stably expressing human orexin-1 (hOX1) or human orexin-2 (hOX2) receptors were maintained in Dulbecco's Modified Eagle Medium (1×) with GlutaMax™1, 4500 mg/L D-Glucose and Sodium Pyruvate (Catalog No. 31966-021, Invitrogen, Carlsbad, Calif.), 5% dialyzed fetal calf serum (Catalog No. 26400-044), 100 μg/ml penicillin and 100 μg/ml streptomycin. The cells were seeded at 5×10^4 cells/well in the poly-D-lysine treated, 96-well, black/clear-bottomed plates (Catalog No. BD356640, BD Biosciences, Palo Alto, Calif.). 24 h later, the cells were loaded for 1 h at 37° C. with 4 μM Flou-4 acetoxymethyl ester (Catalog No. F-14202, Molecular Probes, Eugene, Oreg.) in FLIPR buffer (1×HBSS, 20 mM HEPES, 2.5 mM Probenecid). Hanks' Balanced Salt Solution (HBSS) (10×) (catalog No. 14065-049) and HEPES (1M) (catalog No. 15630-056) were purchased from Invitrogen, Carlsbad, Calif. Probenecid (250 mM) (catalog No. P8761) was from Sigma, Buchs, Switzerland. The cells were washed five times with FLIPR buffer to remove excess dye and intracellular calcium mobilization, [Ca^2−]i were measured using a Fluorometric Imaging Plate Reader (FLIPR-96, Molecular Devices, Menlo Park, Calif.) as described previously (Malherbe et al., Mol. Pharmacol., 64, 823-832, 2003). Orexin A (catalog No. 1455, Toris Cookson Ltd, Bristol, UK) was used as agonist. Orexin A ([…] stock solution in DMSO) was diluted in FLIPR buffer+0.1% BSA. The EC50 and EC80 values of orexin-A were measured daily from standard agonist concentration-response curves in CHO(dHFr-)-OX1R and -OX2R cell lines. All compounds were dissolved in 100% DMSO. Inhibition curves were determined by addition of 11 concentrations (0.0001-10 μM) of inhibitory compounds and using EC80 value of orexin-A as agonist (a concentration which gave 80% of max agonist response, determined daily). The antagonists were applied 25 min (incubation at 37° C.) before the application of the agonist. Responses were measured as peak increase in fluorescence minus basal, normalized to the maximal stimulatory effect induced by EC80 value of orexin-A or orexin-B. Inhibition curves were fitted according to the Hill equation: y=100/(1+(x/IC50)^nH), where nH=slope factor using Excel-fit 4 software (Microsoft).
Kb values were calculated according to the following equation Kb=IC50/(1+[A]/EC50) where A is the concentration of agonist added which is very close to agonist EC80 value, and IC50 and EC50 values were derived from the antagonist inhibition and orexin-A or B agonist curves, respectively.

Structure (SMILES)	Kb [µM]
O=C(c1cnoc1-c1ccccc1)N1CC[C@@H](Nc2nc3ccc(Cl)cc3o2)C1 [Example 61, [(R)-3-(6-Chloro-benzooxazol-2-ylamino)-pyrrolidin-1-yl]-(5-phenyl-isoxazol-4-yl)-methanone]	0.0054
O=C(c1ccccc1-c1ncn[nH]1)N1CC[C@@H](Nc2nc3ccc(Cl)cc3o2)C1 [Example 62, [(R)-3-(6-Chloro-benzooxazol-2-ylamino)-pyrrolidin-1-yl]-[2-(2H-[1,2,4]triazol-3-yl)-phenyl]-methanone]	0.014
O=C(c1ccccc1C(F)(F)F)N1CC[C@@H](Nc2nc3ccc(Cl)cc3o2)C1 [Example 63, [(R)-3-(6-Chloro-benzooxazol-2-ylamino)-pyrrolidin-1-yl]-(2-trifluoromethyl-phenyl)-methanone]	0.0219
O=C(c1ccccc1-c1cccnc1)N1CC[C@@H](Nc2nc3ccc(Cl)cc3o2)C1 [Example 65, [(R)-3-(6-Chloro-benzooxazol-2-ylamino)-pyrrolidin-1-yl]-(2-pyridin-3-yl-phenyl)-methanone]	0.0272
Cc1onc(-c2ccccc2)c1C(=O)N1CC[C@@H](Nc2nc3ccc(Cl)cc3o2)C1 [Example 67, [(R)-3-(6-Chloro-benzooxazol-2-ylamino)-pyrrolidin-1-yl]-(5-methyl-3-phenyl-isoxazol-4-yl)-methanone]	0.0051
Cc1ccc(C(F)(F)F)c(C(=O)N2CC[C@@H](Nc3nc4ccc(Cl)cc4o3)C2)c1 [Example 68, [(R)-3-(6-Chloro-benzooxazol-2-ylamino)-pyrrolidin-1-yl]-(5-methyl-2-trifluoromethyl-phenyl)-methanone]	0.0018
Cc1noc(-c2ccccc2C(=O)N2CC[C@@H](Nc3nc4ccc(Cl)cc4o3)C2)n1 [Example 69, [(R)-3-(6-Chloro-benzooxazol-2-ylamino)-pyrrolidin-1-yl]-[2-(3-methyl-[1,2,4]oxadiazol-5-yl)-phenyl]-methanone]	0.0155
O=C(c1ccccc1-c1cccs1)N1CC[C@@H](Nc2nc3ccc(Cl)cc3o2)C1 [Example 70, [(R)-3-(6-Chloro-benzooxazol-2-ylamino)-pyrrolidin-1-yl]-(2-thiophen-2-yl-phenyl)-methanone]	0.0024
O=C(c1ccccc1OC(F)(F)F)N1CC[C@@H](Nc2nc3ccc(Cl)cc3o2)C1 [Example 71, [(R)-3-(6-Chloro-benzooxazol-2-ylamino)-pyrrolidin-1-yl]-(2-trifluoromethoxy-phenyl)-methanone]	0.0097
O=C(c1c(F)cccc1C(F)(F)F)N1CC[C@@H](Nc2nc3ccc(Cl)cc3o2)C1 [Example 72, [(R)-3-(6-Chloro-benzooxazol-2-ylamino)-pyrrolidin-1-yl]-(2-fluoro-6-trifluoromethyl-phenyl)-methanone]	0.0298
CCOc1cccc(OCC)c1C(=O)N1CC[C@@H](Nc2nc3ccc(Cl)cc3o2)C1 [Example 73, [(R)-3-(6-Chloro-benzooxazol-2-ylamino)-pyrrolidin-1-yl]-(2,6-diethoxy-phenyl)-methanone]	0.0012
Cc1cccc(-c2ccccc2C(=O)N2CC[C@@H](Nc3nc4ccc(Cl)cc4o3)C2)c1 [Example 75, [(R)-3-(6-Chloro-benzooxazol-2-ylamino)-pyrrolidin-1-yl]-(3′-methyl-biphenyl-2-yl)-methanone]	0.0163

Now from value to compound:

Kb [µM]	Structure (SMILES)
0.0145	Cc1nc(-c2ccccc2)c(C(=O)N2CC[C@@H](Nc3nc4ccc(Cl)cc4o3)C2)s1 [Example 78, [(R)-3-(6-Chloro-benzooxazol-2-ylamino)-pyrrolidin-1-yl]-(2-methyl-4-phenyl-thiazol-5-yl)-methanone]
0.0173	O=C(c1c(Cl)cccc1C(F)(F)F)N1CC[C@@H](Nc2nc3ccc(Cl)cc3o2)C1 [Example 79, [(R)-3-(6-Chloro-benzooxazol-2-ylamino)-pyrrolidin-1-yl]-(2-chloro-6-trifluoromethyl-phenyl)-methanone]
0.0041	O=C(c1ccccc1OC(F)(F)C(F)F)N1CC[C@@H](Nc2nc3ccc(Cl)cc3o2)C1 [Example 82, [(R)-3-(6-Chloro-benzooxazol-2-ylamino)-pyrrolidin-1-yl]-[2-(1,1,2,2-tetrafluoro-ethoxy)-phenyl]-methanone]
0.0056	O=C(c1ccccc1-c1ccsc1)N1CC[C@@H](Nc2nc3ccc(Cl)cc3o2)C1 [Example 84, [(R)-3-(6-Chloro-benzooxazol-2-ylamino)-pyrrolidin-1-yl]-(2-thiophen-3-yl-phenyl)-methanone]
0.0169	Cc1cc(C(=O)N2CC[C@@H](Nc3nc4ccc(Cl)cc4o3)C2)c(C(F)(F)F)o1 [Example 86, [(R)-3-(6-Chloro-benzooxazol-2-ylamino)-pyrrolidin-1-yl]-(5-methyl-2-trifluoromethyl-furan-3-yl)-methanone]
0.0186	O=C(c1c(F)cccc1N1CCCC1)N1CC[C@@H](Nc2nc3ccc(Cl)cc3o2)C1 [Example 90, [(R)-3-(6-Chloro-benzooxazol-2-ylamino)-pyrrolidin-1-yl]-(2-fluoro-6-pyrrolidin-1-yl-phenyl)-methanone]
0.0029	COc1cccc(OC)c1C(=O)N1CC[C@@H](Nc2cnc3cc(F)c(F)cc3n2)C1 [Example 92, [(R)-3-(6,7-Difluoro-quinoxalin-2-ylamino)-pyrrolidin-1-yl]-(2,6-dimethoxy-phenyl)-methanone]
0.0164	COc1cccc(OC)c1C(=O)N1CC[C@@H](Nc2nc3ccc(F)c(F)c3o2)C1 [Example 93, [(R)-3-(6,7-Difluoro-benzooxazol-2-ylamino)-pyrrolidin-1-yl]-(2,6-dimethoxy-phenyl)-methanone]
0.0091	COc1cccc(OC)c1C(=O)N1CC[C@@H](Nc2nc3c(F)cccc3s2)C1 [Example 94, (2,6-Dimethoxy-phenyl)-[(R)-3-(4-fluoro-benzothiazol-2-ylamino)-pyrrolidin-1-yl]-methanone]
0.0426	COc1cccc(OC)c1C(=O)N1CC[C@@H](Nc2nc3ccc(F)cc3o2)C1 [Example 95, (2,6-Dimethoxy-phenyl)-[(R)-3-(6-fluoro-benzooxazol-2-ylamino)-pyrrolidin-1-yl]-methanone]
0.0063	COc1cccc(OC)c1C(=O)N1CC[C@@H](Nc2nc3cccc(Cl)c3o2)C1 [Example 97, [(R)-3-(7-Chloro-benzooxazol-2-ylamino)-pyrrolidin-1-yl]-(2,6-dimethoxy-phenyl)-methanone]
0.01	COc1cccc(OC)c1C(=O)N1CC[C@@H](Nc2nc3cccc(F)c3s2)C1 [Example 100, (2,6-Dimethoxy-phenyl)-[(R)-3-(7-fluoro-benzothiazol-2-ylamino)-pyrrolidin-1-yl]-methanone]
0.0129	COc1cccc(OC)c1C(=O)N1CC[C@@H](Nc2nc3c(C)cccc3o2)C1 [Example 106, (2,6-Dimethoxy-phenyl)-[(R)-3-(4-methyl-benzooxazol-2-ylamino)-pyrrolidin-1-yl]-methanone]
0.0319	COc1cccc(OC)c1C(=O)N1CC[C@@H](Nc2cnc3cc(F)ccc3n2)C1 [Example 110, (2,6-Dimethoxy-phenyl)-[(R)-3-(6-fluoro-quinoxalin-2-ylamino)-pyrrolidin-1-yl]-methanone]
0.0344	O=C(c1ccccc1C(F)(F)F)N1CC[C@@H](Nc2nc3ccc(F)cc3s2)C1 [Example 112, [(R)-3-(6-Fluoro-benzothiazol-2-ylamino)-pyrrolidin-1-yl]-(2-trifluoromethyl-phenyl)-methanone]
